Test results: US10082509B2 (priority 2013, dated 2018)
Entries after “also recorded” stand apart in the source; their conditions may differ. Read-outs that look alike come from different tables or passages of the source.

Legend:
Legionella pneumophila = type: cell-based; conditions: for labelling / metabolic incorporation: L. pneumophila strains, laboratory in vitro conditions, FIG. 7; for membrane labelling: FIG. 4
[1] = test system: P. aeruginosa (ATCC 9027); type: cell-based, Pseudomonas aeruginosa
[2] = test system: L. gormanii, L. maceachernii, L. micdadei, L. anisa, L. feeli, L. jordanis, L. tucsonensis and L. bozemanii; type: cell-based, Legionella spp.
E. coli K12 (MG1655) = type: cell-based, Escherichia coli

| SMILES | labelling / metabolic incorporation (Legionella pneumophila) | labelling / metabolic incorporation [1] | membrane fluorescence / metabolic incorporation [2] | labelling / metabolic incorporation (E. coli K12 (MG1655)) | membrane labelling (Legionella pneumophila; L. pneumophila strain of serogroup 7) | membrane fluorescence / metabolic incorporation of the azido chemical reporter into LPS (Legionella pneumophila; four L. pneumophila serogroup 1 strains (incl. Philadelphia, Paris, Lens), 4 mM, 12 hours, 37° C., FIG. 3) | membrane labelling (Legionella pneumophila; four L. pneumophila strains of serogroups 3, 4, 5, 6) |
| --- | --- | --- | --- | --- | --- | --- | --- |
| CC(=O)NC1C(O)OC(CN=[N+]=[N-])[C@@H](NC(C)=O)[C@@H]1OC(C)=O (some centres unmarked) | not incorporated; also recorded: No labelling was observed | – | – | – | – | – | – |
| CC(=O)N[C@H]1[C@H](O)[C@H](NC(C)=O)C(O)O[C@@H]1CN=[N+]=[N-] (some centres unmarked) | efficiently labelled | not incorporated; also recorded: failed to show any labelling | not incorporated; also recorded: no membrane fluorescence was observed | not incorporated; also recorded: failed to show any labelling | absence of labelling | highly distinctive fluorescence on their membrane | very bright membrane labelling |
